Measurements published in ChEMBL document CHEMBL3507680, “University of Dundee, Gates Library screen for HepG2 cell viability”.

Assay: Human HepG2 cell viability assay in 384 well format
Type: toxicity, cell-based
Set-up: dose 125 nL, time 70.5 hour; cytotoxicity at 70.5 h: concentration not given beside the values
Settings: HepG2 cells, read-out: Inhibition

SMILES	cytotoxicity at 70.5 h
COCCN1CC[C@@H]2OC[C@H](C(=O)N(C)Cc3ccccn3)C[C@@H]2C1	-3.83%
COC1COC2(CCN(C(=O)c3ccccc3F)CC2)C1 (stereo not given)	-4.84%
Cn1c2c(ccc1=O)CC(NC(=O)c1ccsc1)CC2 (stereo not given)	-2.29%
COc1cccc(CC(=O)N2CC[C@@H]3CN(C)S(=O)(=O)[C@@H]3CC2)c1	-3.48%
Cc1cccc(CN2CC[C@@H]3O[C@@H](C(=O)N4CCN(C)CC4)C[C@@H]32)n1	-1.64%
COCCNC(=O)C[C@@H]1COC[C@H]2CN(Cc3cccnc3)C[C@@H]12	-0.897%
COCCC(=O)N1C[C@H]2CCC[C@@]2(COC)C1	-6.36%
Cc1cccc(CN2CC[C@@H]3O[C@@H](C(=O)N4CCN(C)CC4)C[C@@H]32)c1	-6.66%
CCn1nc(C)cc1C(=O)N1C[C@@H]2C[C@@H](c3noc(C)n3)O[C@@H]2C1	-6.34%
c1c(CN2CCOCC2)nc2n1CCN(C1CCOCC1)C2	-1.69%
CC(C)CNC(=O)C1=NOC2(CCN(Cc3cccc(C#N)c3)C2)C1 (stereo not given)	-1.8%
c1ccc(C[C@H]2CN(Cc3nccs3)CC[C@H]2OCC2CC2)cc1	-11.5%
COCCn1c2c(ccc1=O)CC(NS(C)(=O)=O)CC2 (stereo not given)	16%
CC(C)Nc1nc(N2CCOCC2)nc2c1CN(CC(=O)N(C)C)CC2	26.3%
O=C(N1CCCC1)N1CCN(CC2CC2)c2ncccc2C1	6.34%
c1ccc(OC[C@H]2CCC[C@]23CN(Cc2nccs2)CCO3)nc1	-4.23%
CC(=O)N1CCn2cc(CNC(=O)c3cccn3C)nc2C1	-10.7%
CCOC[C@@H]1CCC[C@@]12CN(Cc1nccs1)CCO2	0.476%
COCCC1COC2(CCN(C(=O)c3ccco3)CC2)C1 (stereo not given)	-5.74%
CC(C)Oc1ncnc2c1CCN(C(=O)c1cccn1C)CC2	7.42%
CC(=O)N1CCC2(CCCN(C(=O)c3ccccc3)C2)C1 (stereo not given)	6.68%
O=C(N1CCCC1)N1CCc2ncnc(C3CCOC3)c2CC1 (stereo not given)	-9.08%
COCCC(=O)N1CCC2(COCc3c(C)nc(NCC4CC4)nc32)C1 (stereo not given)	-4.97%
O=C(CC1CC1)N1CCC2(CC1)CN(c1ncccn1)CCO2	-7.66%
Cc1ncsc1CN1CC[C@H]2C(=O)N(c3ccccc3)CCO[C@H]2C1	-9.01%
CS(=O)(=O)NCc1cn2c(n1)CN(C(=O)c1ccc[nH]1)CC2	-9.01%
CN(Cc1ccccn1)C1COC2(CCN(Cc3cccnc3)CC2)C1 (stereo not given)	24.4%

SMILES	cytotoxicity at 70.5 h
COc1ccc(C(=O)N2Cc3c(Cn4ccnc4)nn(C)c3C2)cc1	-8.74%
O=C1[C@@H]2CCN(Cc3ccncc3)C[C@@H]2OCCN1c1ccccc1	-8.52%
Cc1occc1C(=O)N1CCC2(CC1)C(c1cnn(C)c1)CC(=O)N2C (stereo not given)	4.52%
C[C@H]1C[C@@H]2CCN(Cc3ccccn3)C[C@H]2O1	-0.0314%
c1cnc(N2CCCC3(CCN(Cc4ccncc4)C3)C2)nc1 (stereo not given)	-13.2%
O=C(c1cscn1)N1CCC2(CCN(Cc3nccs3)C2)CC1	-12.2%
Cc1ccc(CN2CC[C@H]3OCC[C@@H](c4nc(C)no4)[C@H]3C2)cc1	-11.4%
O=C(c1ccnnc1)N1C[C@H]2CCC[C@@]2(COCC2CCOCC2)C1	-13%
CCOCC1CN(C(=O)C2=CCCC2)Cc2cnn(CC)c21 (stereo not given)	-16.7%
Cc1occc1C(=O)N1CCC2(CC1)NC(=O)CC2c1cnn(C)c1 (stereo not given)	-10.3%
CC(C)NC(=O)C1CN(C(=O)Nc2ccccc2)CC12CCOCC2 (stereo not given)	22%
CCOCC1CN(Cc2cnn(C)c2)Cc2ncn(CC3CC3)c21 (stereo not given)	23.1%
CCCNC(=O)c1cc2c(c3ccccc3n2C)n1C(=O)N(C)C	-5.66%
CS(=O)(=O)NCc1ncn2c1CN(C(=O)CC1CCCC1)CCC2	-5.42%
Cc1ncccc1NC(=O)C1=NOC2(CCN(Cc3nccs3)C2)C1 (stereo not given)	-11.1%
CC(C)c1nccn1C(C)C(=O)NCc1noc(Cc2cccs2)n1 (stereo not given)	21.9%
Cc1ccc2[nH]c(-c3cn(C4CCNCC4)nn3)nc2c1C	-3.44%
CCN(Cc1cccc(C(=O)Nc2c(C)cnn2C)c1)[C@H]1COC[C@@H]1O	-2.17%
Cc1cccc(CN2CCC(Cc3ccccc3F)CC2)n1	0.263%
O=C1CCCCN1CCCC(=O)N1CCC2(CC1)[C@H](O)C[C@@H]2O	-4.17%
COc1ccccc1[C@@H]1CN(C(=O)Cc2csc(C)n2)C[C@H]1C(=O)O	12.8%
CCO[C@H]1CN(C)C[C@@H]1NC(=O)c1cc(C)nc2c(C)cccc12	-8.5%
CN1CCN(C[C@H]2CC[C@@H](Cc3ccc4c(c3)OCO4)O2)CC1	-6.19%
CCSc1ccc(C(=O)N2CC[C@](O)(CC)[C@H](O)C2)s1	22.5%
CCCc1nc(NC2(COC)CCCC2)c2cnn(C)c2n1	-4.69%
COCC1(C(=O)N[C@H]2CN(c3noc(C)n3)C[C@@H]2C2CC2)CCC1	-1.28%
c1cc(-c2nc3c(c(NCCn4ccnn4)n2)CCNCC3)ccn1	0.89%

SMILES	cytotoxicity at 70.5 h
CCc1ccc2nc(C)cc(C(=O)NC3CCNC3=O)c2c1 (stereo not given)	0.829%
Cc1cc(=O)c2ccccc2n1CC1CCNC1 (stereo not given)	-1.77%
NC(=O)c1cc2c(nc1Oc1ccccc1CN1CCCCC1)CCC2	-15%
CCN(CCn1cccn1)Cc1nc(-c2cc(F)ccc2F)oc1C	-11.2%
O=C(c1cscn1)N1CCCCC1c1nc2cc(F)ccc2[nH]1 (stereo not given)	-1.08%
CC(C)c1ncc(CN2C[C@@H](CN3CCCCC3)[C@@H](CO)C2)cn1	-2.58%
O=C(C1CCOCC1)N1CCOC(CC2CCCCC2)C1 (stereo not given)	-8.55%
O=C(N1CCCC1)N1C[C@H]2CC[C@@H]1CN(Cc1ccncc1)C2	17.1%
CCC[C@H]1CN(Cc2ccc(N(C)C)nc2)C[C@@H]1NC(=O)CO	-6.62%
c1ccc(-c2nc3c(c(NCCn4cccc4)n2)CCNCC3)nc1	-14.1%
CCCc1nc(C)cc(NCc2ccc(S(N)(=O)=O)cc2)n1	-16.8%
COCCN1CCCCC12CC(=O)N(c1cccc(C#N)c1)C2 (stereo not given)	-4.04%
Cn1cncc1CN1CCC2(CC1)COCCN(S(C)(=O)=O)C2	-8.74%
CCC(=O)N1CCC2(CC1)C(=O)N(C)CCN2Cc1csc(C)n1	-4.08%
O=C([C@H]1CC[C@@H]2[C@@H](CCN2C2CCCC2)O1)N1CCOCC1	-12.8%
c1csc(CN2CCn3c(Cn4cncn4)cnc3C2)n1	-17.2%
COCCC(=O)N1CC2(CCN(Cc3cccc(Cl)c3)CC2)C1	-8.68%
O=C(N1CCCC1)N1CCO[C@H]2[C@@H](Oc3ccccn3)CC[C@@H]21	-6.73%
Cc1ccc(CN2CCCC3(CCN(S(C)(=O)=O)C3)C2)o1 (stereo not given)	-10.2%
Cn1nnc2c1CCN(Cc1nccs1)C2COCc1ccccc1 (stereo not given)	-2.36%
O=C(C1=CCCC1)N1CCO[C@H]2[C@@H](Oc3ccccn3)CC[C@@H]21	-0.715%
Cn1cc(C[C@H]2[C@H](N3CCOCC3)CCN2C(=O)c2ccco2)cn1	5.32%
O=C(c1ccc[nH]1)N1CCn2cc(CN3CCCC3)nc2C1	-8.96%
O=C(c1cccnc1)N1CCc2ncnc(C3CCOC3)c2CC1 (stereo not given)	-7.71%
Cc1cc(CN2CC[C@H]3C(=O)N(c4ccccc4)CCO[C@H]3C2)no1	23.6%
O=C(c1cccc(Cl)c1)N1CC[C@H]2[C@H]1CCN2CC1CCOCC1	-8.99%
COc1ccc(CN2CC[C@H]3[C@H]2CCN3C(=O)c2cnn(C)c2)cc1	-0.0414%

SMILES	cytotoxicity at 70.5 h
NC(=O)N1C[C@H]2CN(Cc3nccs3)C[C@H]2C1	-18.2%
O=C1[C@H]2CN(CC3CC3)C[C@H]2CN1Cc1cccc(F)c1	-7.25%
CN(C)c1ncnc2c1CCN(CC1CCOC1)CC2 (stereo not given)	-14.4%
Cn1ccnc1CN1CCC2(CC(=O)N(c3cncnc3)C2)C1 (stereo not given)	-14.3%
Cn1cc(C(=O)N2CC[C@@H]3[C@@H]2CCN3Cc2cccc(F)c2)cn1	-6.38%
CS(=O)(=O)N[C@@H]1CN(C(=O)c2ccccn2)[C@@H]2CCCO[C@@H]21	-5.15%
COC[C@]12COC[C@H]1CN(Cc1cc(OC)cc(OC)c1)C2	-10.3%
CCc1cnc(N2CC3(CCN(Cc4ccsc4)C3)C2)nc1	18.4%
CCOCC1CN(Cc2cnn(C)c2)Cc2nn(C)cc21 (stereo not given)	2.42%
CC(C)N1CCO[C@H]2CN(C(=O)c3ccoc3)C[C@H]21	-4.51%
O=C(C[C@@H]1COC[C@H]2CN(C3CCC3)C[C@@H]12)NCc1cccnc1	-16.6%
C[C@H]1CN(c2ccccn2)C[C@@]12CCN(c1cccnc1)C2=O	-2.67%
CC(C)N1CC[C@H]2[C@H](C[C@@H](Cn3cncn3)N2c2nccs2)C1	-6.46%
c1ccc(CN2CC[C@@H]3O[C@@H](COCC4CCOCC4)CC[C@@H]32)nc1	-14.4%
O=C(NC1CCCC1)[C@@H]1CN(Cc2nccs2)C[C@H]2OCC[C@H]21	33.7%
Fc1cnc(N2CCCC3(CN(Cc4ccncc4)CCO3)C2)nc1 (stereo not given)	-6.32%
O=C(NC[C@]12COC[C@H]1CN(Cc1ccncc1)C2)c1ccco1	-10.9%
Cn1cc(N2CCC3(CCN(Cc4cccnc4)C3)C2=O)cn1 (stereo not given)	-17.1%
COc1cc(N2C[C@@H]3COC[C@]3(COc3cccnc3)C2)ncn1	-5%
Fc1cnc(N2CCOC3(CCN(Cc4ccsc4)CC3)C2)nc1	8.85%
CCN1CCO[C@]2(CCC[C@H]2COCc2csc(C)n2)C1	-7.19%
Cc1nc(CN2CCC3(CC2)C(=O)N(C)CCN3C)cs1	-4.7%
Fc1cccc(N2CCCC3(CN(Cc4ccncc4)CCO3)C2)c1 (stereo not given)	-4.69%
Cc1nc(CN2CCN(Cc3ccoc3)Cc3cccnc32)cs1	32.4%
